Test results taken from patent publication US20240207422A1, “NERVE TARGETING PEPTIDE CONJUGATES AND METHODS OF USE” (Alume Biosciences, Inc., priority 2022, published 2024).

system: excised human nerve tissue; test: Phage display selection on excised human nerve tissue (Nerve2, Nerve3), NextGen sequence counts; assay type: binding; conditions: unique sequence count (relative enrichment); peptides overlapping between Nerve2 and Plated Nerve2
Procedure: Several m13 phage libraries were constructed expressing randomized variants of a parent peptide (QVPWEEPYYVVKKS-SGGL; SEQ ID NO: 576). In particular, the first 14 amino acids of the parent peptide were randomized using degenerate oligonucleotide synthesis to obtain a diverse set of peptides with a mutation rate of about 50% per residue.
To accomplish this, synthesis was carried out by the XXK codon design approach, where X is any base and K is G or T. To bias synthesis towards the parent sequence, synthesis was carried out at each X position with a mixture of about 70%-85% of the parent nucleotide and 15-30% of the remaining 3 nucleotides. The resulting molecules were inserted into fADL-1e (Antibody Design Laboratories), which is a type 3 phage display vector having a cloning site on the N-terminal side of the full-length gene III protein. The fusion proteins are directed to the periplasm by the PelB leader peptide, which is inserted in the vector […].
Collectively, the phage display libraries used in the screens comprised about 600 million peptides, with sequencing analysis confirming a mutation rate of about 50% per residue.
Phage libraries were independently processed, as follows, with five biological samples: two independent samples of excised human nerve tissue, one sample of a human nerve extract, and two independent samples of human muscle tissue, as follows:
Excised Human Nerve Tissue: For each of the two independent samples, phage were processed through multiple cycles of selection, with representative phage being isolated and sequenced after each selection cycle. Specifically, for selection using human nerve tissue, a sample of […] tissue (2 mm by 2 mm) was washed prior to mixing and incubation with a phage library. After incubation, the mixture (containing mostly intact nerves with phage particles that had variable affinity for nerves) was centrifuged and the nerve pellet washed multiple times with PBS to remove phage with little or no affinity for nerve tissue. The pellet was homogenized and plated for titering and reamplification. Phage that were bound at each round were sequenced. NextGen sequencing of pools after 2, 3 and 4 rounds of selection were used to isolate candidate sequences that were further analyzed using bioinformatics.
NextGen sequencing of pools after 2, 3 and 4 rounds of selection were used to isolate candidate sequences from each of the five samples. These five data sets were then analyzed as described in the next section.
Peptide and vector sequences were translated starting at the first start codon in the nucleotide sequence. […] Trimmed peptides with identical sequences were combined and quantified according to their frequency (count).
Following processing, an R script was written to merge the unique peptide sequences (with counts 6 or greater) from the 5 different data sets to analyze the overlap between nerve and muscle binding activity.
For the single Nerve2, Nerve3, and Plated Nerve2 (pn2) subsets, the number of counts for each group was set at a threshold giving rise to at least 100 peptides. […] As highlighted in yellow in FIG. 1B, the representative group also included 6 unique peptides overlapping between nerve2 and nerve3, 200 unique peptides overlapping between nerve2 and plated nerve2 (at least 60 counts), 4 unique peptides overlapping between nerve3 and plated nerve2. Finally, as highlighted in green in FIG. 1B, the representative group also included […] common to the nerve2, nerve3, and plated nerve2 sets.

Substance	Count
107 (HVGWEQPYYVLRKS) [compound 107]	112
108 (DFATEERRYAVPKY) [compound 108]	111
109 (DVPLVKPHYGAVDS) [compound 109]	111
110 (QFPSEASHYVVRNS) [compound 110]	111
111 (HSRLHETSYVFNKP) [compound 111]	110
112 (HVQRQETDYAAKRI) [compound 112]	110
113 (NVLSEEPSSRDANV) [compound 113]	110
114 (HLPFEAPYYAVKRS) [compound 114]	109
115 (QLPGEEPTYVGSNS) [compound 115]	109
116 (EVPVGDLSYVGKKY) [compound 116]	108
117 (QFPLVQPNYLVEMP) [compound 117]	108
118 (HVPGQDSYNVVNKF) [compound 118]	107
119 (HVTYTEASVYKRTF) [compound 119]	107
120 (QLEWEEPHYAARKS) [compound 120]	107
121 (HYQSVKSYSVQKKI) [compound 121]	105
122 (QLTSAEASYVGKQS) [compound 122]	105
123 (HRPWEEPYYVAKQS) [compound 123]	104
124 (LFASENPYNVKSKS) [compound 124]	103
125 (SVPGEDPSQFGKTP) [compound 125]	103
126 (HVPSEEPYKLDEQS) [compound 126]	102
127 (QFRIEDSYDVANQS) [compound 127]	102
128 (QIYWHESNYLVTKS) [compound 128]	102
129 (HIPGDETSYVMKKY) [compound 129]	100
130 (QSLSEEPQYVVTPS) [compound 130]	98
131 (HILLEEPSNVLNKR) [compound 131]	96
132 (TLPVYVPYYVVNNT) [compound 132]	96

Substance	Count
133 (HMRSEQPYYGGKVS) [compound 133]	95
134 (EVPRTERNFVVKNT) [compound 134]	94
135 (HGAWEETHYVVIQS) [compound 135]	94
136 (HGRSVESYDLVNKR) [compound 136]	94
137 (QVTWGEPQYVVYKS) [compound 137]	94
138 (QLPSGEPYSFVKES) [compound 138]	93
139 (DVPLEDTYYRVKKY) [compound 139]	91
140 (HVPFDKSSHLVKKY) [compound 140]	90
141 (QFAWDSPYSRGKKT) [compound 141]	90
142 (HVTWQQTKYVTNRS) [compound 142]	89
143 (RFPLEEPNYFQTKS) [compound 143]	89
144 (HVTWGKTYHLVTDS) [compound 144]	88
145 (LVPWEEPGYFQNTS) [compound 145]	88
146 (QYPREEPRHALKMS) [compound 146]	88
147 (NVTFEQSSYVVTSP) [compound 147]	87
148 (YVTSESPYYVHGQP) [compound 148]	87
149 (HVSGTKPYHLVKKS) [compound 149]	86
150 (EDVLHNAYHVETQF) [compound 150]	85
151 (QFAWEHRDYVLQRS) [compound 151]	85
152 (QVLWEERLYVVKNS) [compound 152]	83
153 (RSTWEQSYTIVKES) [compound 153]	83
154 (QMASKEPNYPVKNS) [compound 154]	82
155 (QNPAEEQYIVWNNS) [compound 155]	82
156 (SHPWEKQYDVFNNS) [compound 156]	81
157 (DVPWEEPYHVGNWR) [compound 157]	80
158 (HVASEQPYYGVNRP) [compound 158]	80

Substance	Count
159 (HVLGEEPYYFVQHV) [compound 159]	80
160 (QEPWDEFSYNVNAL) [compound 160]	80
161 (QFRSGEAYVVVQTS) [compound 161]	80
162 (QNAFSKPYNGVKPS) [compound 162]	80
163 (QIESGEPYHDQKHP) [compound 163]	79
164 (QVRWPEQYYVVNMG) [compound 164]	79
165 (QYAREEPYYFMSYK) [compound 165]	79
166 (QIPCQSDHNVVTNC) [compound 166]	78
167 (DRLSDEPFKGMTHS) [compound 167]	77
168 (DVRWSDPHDRITKS) [compound 168]	77
169 (HLPWEGPEYLGKKS) [compound 169]	77
170 (HVPRDEPQSFVHRS) [compound 170]	77
171 (QFSSAEAYTVVNES) [compound 171]	77
172 (QIPSHSPYYALNSS) [compound 172]	77
173 (QQRLSASYQHVIKS) [compound 173]	77
174 (HFEGEDLYDRVKSR) [compound 174]	76
175 (HVTLEKPYDVATKS) [compound 175]	76
176 (QLPGEHPYYPIKKP) [compound 176]	76
177 (EALWYKHYYGVHKT) [compound 177]	75
178 (HVVRHYPPHFVHKS) [compound 178]	75
179 (LIPSEERSYAVINT) [compound 179]	75
180 (QHTHKQPFNVVKNY) [compound 180]	75
181 (VVPSQGTYHVGMTS) [compound 181]	75
182 (AVAWERPYYVVNHS) [compound 182]	74
183 (DVLLARTYYFGEFP) [compound 183]	74
184 (HFAGQEHLHFVEIS) [compound 184]	74

Substance	Count
185 (LFAWAEANNVMKNS) [compound 185]	74
186 (SITNKQSVYVLKKS) [compound 186]	73
187 (HVQSANPYYDVRNS) [compound 187]	72
188 (HVSFDEPYYYVKKS) [compound 188]	72
189 (QDYWAKPSYIVKHS) [compound 189]	72
190 (QISLTEATLVVRKS) [compound 190]	72
191 (DVLWEEPRYFVNNS) [compound 191]	71
192 (HAHGQETYFLVKQS) [compound 192]	71
193 (HFALQDPYQVFKKT) [compound 193]	71
194 (QYPAERPTFDVTNA) [compound 194]	71
195 (SLPMEERYYAVRTA) [compound 195]	71
196 (DVEWEEPYYFLEKS) [compound 196]	70
197 (DVTWEEPYYAVKNS) [compound 197]	69
198 (EHPRVESVYLFPHT) [compound 198]	69
199 (HDSLDLHYYAMHES) [compound 199]	69
200 (QCPLEESCFDGQKS) [compound 200]	69
201 (QLTWPKQNYTMTQS) [compound 201]	69
202 (QLPWGAPYYVVKNS) [compound 202]	68
203 (RLPSEEPYTVAKRP) [compound 203]	68
204 (DFPWEQRSSTVKQY) [compound 204]	67
205 (DHTRVHPYYDFEIP) [compound 205]	67
206 (HATLQEPYFVVNHY) [compound 206]	67
207 (HDTWKGPYYPANKS) [compound 207]	67
208 (QLPSQEPYNVQRKS) [compound 208]	67
209 (SVTRYDLSTDVTKS) [compound 209]	67
210 (ESQWEQPSDVFKVV) [compound 210]	66
